Drawing on patent US20110046185A1, “Arylchalcogenoarylalkyl-substituted imidazolidine-2,4-diones, process for preparation thereof, medicaments comprising these compounds and use thereof” (SANOFI-AVENTIS, priority 2008, published 2011), this text covers Ki and IC50 for 11 compounds.

Read-outs that look alike come from different tables or passages of the source.

Experiment [1] concerns the target T1, hCB1R (Homo sapiens, UniProt P21554). As to the kind of experiment: Binding to the CB1 receptor ([3H]-SR141716A displacement, CHO-K1/cannabinoid CB1 protein). Set-up: expressed in transfected cells. As to the method: Test compounds: The compounds (3 μl, 10 mM, 100% DMSO), pipetted into 96-well PP microtiter plates, were diluted with 27 μl of 100% DMSO (dimethyl sulfoxide). Proceeding from this solution, further 3-fold dilution steps were undertaken by transferring 10 μl in each case to a new PP microtiter plate and adding a further 20 μl of 100% DMSO. In each case 6 μl of these solutions were transferred into new 96-well PP microtiter plates and made up with 144 μl of assay buffer. The end concentrations ranged from 10 μM to 0.005 μM.
Negative control: AM 251, dissolved in assay buffer with 1% DMSO, was added to the dilution series in the microtiter plates as a control. The end concentration was 1 μM.
Blank control: assay buffer with 1% DMSO was added to the dilution series of the microtiter plates as a blank control.
The values were calculated using the corrected raw data.
The values reported were obtained as average values of a double determination. The IC50 values were calculated from the measurements with the program Xlfit, formula 205. Ki values were obtained from the IC50 and Kd values utilizing the Cheng-Prusoff equation: […]
Literature: Cheng, Y.-C., and Prusoff, W. H. (1973) Biochem. Pharmacol 22, 3099-3108 Results: Ki values of example compounds;

Another experiment deals with T2, hCB2R (Homo sapiens, UniProt P34972).
T2 construct: expressed in transfected cells; host or cells: HEK293
T2 sequence (P34972 whole entry): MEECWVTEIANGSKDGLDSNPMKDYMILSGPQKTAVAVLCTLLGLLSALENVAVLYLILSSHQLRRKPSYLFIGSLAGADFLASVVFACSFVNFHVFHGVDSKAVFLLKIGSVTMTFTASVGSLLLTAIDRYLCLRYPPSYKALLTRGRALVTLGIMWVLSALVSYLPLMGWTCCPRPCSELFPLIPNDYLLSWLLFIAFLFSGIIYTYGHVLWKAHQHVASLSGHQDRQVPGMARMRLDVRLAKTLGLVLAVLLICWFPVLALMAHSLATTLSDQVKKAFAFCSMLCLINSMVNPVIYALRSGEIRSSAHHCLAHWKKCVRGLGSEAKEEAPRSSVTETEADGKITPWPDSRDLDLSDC
As to the kind of experiment: In vitro functional FLIPR assay with recombinant HEK293 cells, cannabinoid 2 receptor. Format: cell-based. The settings on record: recombinant HEK293 cells expressing CB2 and Galpha16; Ca2+ change vs reference agonist. As to the method:
(§1) Function-testing assays were performed by means of the FLIPR technique (“Fluorometric Imaging Plate Reader”, Molecular Devices Corp.).
(§2) To this end, ligand-induced changes in the intracellular concentration of Ca^2+ in recombinant HEK293 cells, which expressed both a cannabinoid receptor (CB1 or CB2) and G-protein Galpha16, were determined. For the studies, cells were sown into 96-well microtiter plates (60 000 cells/well) and left to grow overnight. The medium was removed and the cells were incubated in buffer which contained the fluorescent dye Fluo-4. After this loading with dye, the cells were washed, test substance was added dissolved in buffer, the mixture was incubated for 20 minutes, a known cannabinoid receptor agonist as a reference agonist was added in buffer and, finally, the changes in the intracellular Ca^2+ concentration were measured in the FLIPR unit.
(§3) Results were presented as the percentage change relative to the control (0%: analogous experiment without test substance and without reference agonist, i.e. only with buffer; 100%: analogous experiment without test substance, but with reference agonist in excess), and used to calculate dose/action curves, and IC50 values were determined.

The target in experiment [2] is T1, hCB1R. Kind of experiment: In vitro functional FLIPR assay with recombinant HEK293 cells, cannabinoid 1 receptor. Type of experiment: cell-based. Set-up: expressed in transfected cells; host or cells: HEK293. The settings on record: recombinant HEK293 cells expressing CB1 and Galpha16; Ca2+ change vs reference agonist. As to the method:
as §1, §2, §3

Where [3] appears, read: [3H]-SR141716A 0.5 nM, Ki from IC50 by Cheng-Prusoff, average of double determination, read-out: hCB1R, binding Ki.

T1 sequence (P21554 whole entry): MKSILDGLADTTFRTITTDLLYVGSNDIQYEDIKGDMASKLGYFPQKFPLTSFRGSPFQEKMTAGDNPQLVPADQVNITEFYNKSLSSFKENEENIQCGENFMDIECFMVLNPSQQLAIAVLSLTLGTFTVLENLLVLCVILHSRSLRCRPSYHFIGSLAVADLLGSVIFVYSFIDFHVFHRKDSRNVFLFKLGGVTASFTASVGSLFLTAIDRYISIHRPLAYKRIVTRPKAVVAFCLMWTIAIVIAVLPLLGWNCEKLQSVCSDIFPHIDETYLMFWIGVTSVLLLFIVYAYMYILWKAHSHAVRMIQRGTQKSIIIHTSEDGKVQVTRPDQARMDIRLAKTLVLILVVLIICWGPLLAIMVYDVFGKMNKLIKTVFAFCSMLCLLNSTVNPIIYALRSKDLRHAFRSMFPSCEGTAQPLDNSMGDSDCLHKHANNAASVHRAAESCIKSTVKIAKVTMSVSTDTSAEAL

For the compound `CC1(C)C(=O)N(c2ccc(C#N)nc2)C(=O)N1Cc1ccccc1Oc1ccccc1` [Example 86], on hCB1R [1] (setting [3]), the Ki turned out to be 311 nM.

Turning to `CC1(C)C(=O)N(c2cccc(SC(F)(F)F)c2)C(=O)N1Cc1ccccc1Oc1ccccc1` [Example 14], the Ki at hCB1R [1] (setting [3]) came out at 289 nM.

Compound `CC1(C)C(=O)N(c2ccc(C#N)c(C(F)(F)F)c2)C(=O)N1Cc1ccccc1Sc1ccc(Cl)cc1` [Example 105, 4-{3-[2-(4-Chlorophenylsulfanyl)benzyl]-4,4-dimethyl-2,5-dioxoimidazolidin-1-yl}-2-trifluoromethylbenzonitrile] came in with a Ki at hCB1R [1] of 44 nM. Moreover, the half-inhibitory concentration (IC50) (in general, the midpoint of a concentration-inhibition curve) at hCB2R is over 10000 nM.

As for `CC1(C)C(=O)N(c2cccc(C(F)(F)F)c2)C(=O)N1Cc1ccccc1Oc1ccccc1` [Example 8], on hCB1R [1] (setting [3]), the Ki was determined as 249 nM.

As for `COC(=O)c1ccc(Oc2ccccc2CN2C(=O)N(c3ccc(C#N)c(C(F)(F)F)c3)C(=O)C2(C)C)cc1` [Example 96], the Ki on hCB1R [1] stood at 22 nM. Besides, the IC50 on hCB1R [2] is 152 nM.

In the case of `CC1(C)C(=O)N(c2ccc(C#N)c(C(F)(F)F)c2)C(=O)N1Cc1ccccc1[S+]([O-])c1ccc(Cl)cc1` (centres unmarked) [Example 107, 4-{3-[2-(4-Chlorobenzenesulfinyl)benzyl]-4,4-dimethyl-2,5-dioxoimidazolidin-1-yl}-2-trifluoromethylbenzonitrile], at hCB1R [1] (setting [3]), the Ki stood at 232 nM.

As to `CC1(C)C(=O)N(c2ccc(C#N)c(C(F)(F)F)c2)C(=O)N1Cc1ccccc1Oc1ccc(C(=O)O)cc1` [Example 97, 4-{2-[3-(4-Cyano-3-trifluoromethylphenyl)-5,5-dimethyl-2,4-dioxo-imidazolidin-1-ylmethyl]phenoxy}benzoic acid], at hCB1R [1] (setting [3]), the Ki came out at 533 nM. For the same compound, the IC50 on hCB2R is over 10000 nM.

In the case of `CC1(C)C(=O)N(c2ccnc(C(F)(F)F)c2)C(=O)N1Cc1ccccc1Oc1ccccc1` [Example 83], the Ki on hCB1R [1] (setting [3]) is 24 nM.

On to `CC1(C)C(=O)N(c2cc(C(F)(F)F)ccc2F)C(=O)N1Cc1ccccc1Oc1ccccc1` [Example 12], for which, at hCB1R [1] (setting [3]), the Ki came out at 284 nM.

For the compound `CC1(C)C(=O)N(c2ccc(C#N)c(C(F)(F)F)c2)C(=O)N1Cc1ccccc1Oc1ccc(C(N)=O)cc1` [Example 98, 4-{2-[3-(4-Cyano-3-trifluoromethylphenyl)-5,5-dimethyl-2,4-dioxo-imidazolidin-1-ylmethyl]phenoxy}benzamide], the 50% inhibitory concentration (IC50) at hCB1R [2] is 507 nM; on hCB2R it was over 10000 nM.

For the compound `CC1(C)C(=O)N(c2ccnc(Cl)c2)C(=O)N1Cc1ccccc1Oc1ccccc1` [Example 82], at hCB1R [1] (setting [3]), the Ki worked out at 2 nM. Moreover, the IC50 on hCB1R [2] is 100 nM; at hCB2R, over 10000 nM.
